Tests used:
[1] = Plasma levels of codeine in rats after intravenous or intranasal administration (HPLC)
Experimental: One hundred μL of rat plasma was treated with 100 μL of acetonitrile to precipitate the proteins. This mixture was centrifuged for 5 minutes at 5,000×g. The clear supernatant was injected onto the HPLC column.
The HPLC system included the following:
Column: Altex 5 micron Ultrasphere, 4.6 mm×25 cm
Mobile Phase: Acetonitrile: 0.01 M Acetate buffer (pH 4.0)−50:50
Standard Curve: See FIG. 1

[2] = Penetration of codeine into CSF of rats after intravenous or intranasal administration (HPLC); conditions: 60 minutes post-dose
Experimental: At 60 minutes post-dose, the rats were sacrificed, and the CSF (0.1 ml) was recovered and injected directly onto the HPLC column.

[3] = in vivo; cited from earlier work
[4] = rat, plasma, inhaled or intranasal, 10 mg/kg
[5] = rat, plasma, other: intranasal, 5 mg/kg
[6] = rat, plasma, other: intranasal, 10 mg/kg

Compound `COc1ccc2c3c1O[C@H]1[C@@H](O)C=C[C@H]4[C@@H](C2)N(C)CC[C@@]341` [Codeine] has an AUC(0-t) ([1]; rat, plasma, inhaled or intranasal, 5 mg/kg) of 1480 ng·h/mL, an AUC(0-t) [1, 4] of 2840 ng·h/mL and a bioavailability [1, 4] of 115%. It also gave an AUC(0-t) ([1]; rat, plasma, iv, 10 mg/kg) of 2460 ng·h/mL, a concentration at 0 min ([1]; rat, plasma, iv, 10 mg/kg) of 19400 ng/mL and a concentration at 2 min ([1]; rat, plasma, iv, 10 mg/kg) of 9400 ng/mL. For the same compound, the concentration at 5 min ([1]; rat, plasma, iv, 10 mg/kg) was 5200 ng/mL, the concentration at 10 min ([1]; rat, plasma, iv, 10 mg/kg) was 2700 ng/mL and the concentration at 20 min ([1]; rat, plasma, iv, 10 mg/kg) was 2040 ng/mL. The concentration at 40 min ([1]; rat, plasma, iv, 10 mg/kg) was 1220 ng/mL, the concentration at 60 min ([1]; rat, plasma, iv, 10 mg/kg) was 860 ng/mL and the concentration at 0 min [1, 5] was 0 ng/mL. The concentration at 2 min [1, 5] was 840 ng/mL, the concentration at 5 min [1, 5] was 2880 ng/mL and the concentration at 10 min [1, 5] was 3150 ng/mL. The concentration at 20 min [1, 5] was 2240 ng/mL, the concentration at 40 min [1, 5] was 600 ng/mL and the concentration at 60 min [1, 5] was 560 ng/mL. The concentration at 0 min [1, 6] was 0 ng/mL, the concentration at 2 min [1, 6] was 1400 ng/mL and the concentration at 5 min [1, 6] was 5100 ng/mL. The concentration at 10 min [1, 6] was 7620 ng/mL, the concentration at 20 min [1, 6] was 3320 ng/mL and the concentration at 40 min [1, 6] was 1420 ng/mL. The concentration at 60 min [1, 6] was 1100 ng/mL, the “Absorption following intranasal administration compared with intravenous” value ([1]; rats, IN vs IV) was “rapidly and completely absorbed” and the “CSF levels for 5 mg/kg intranasally compared with 10 mg/kg intravenously” value [2] was “much higher”. The Half-life in plasma [3] was 2 to 4 h.

Reference: patent US6608073B1 (New Millennium Pharmaceutical Research, Inc., priority 1998, dated 2003)
